Laboratory results reported in PubChem BioAssay (NCI).
“And” between values parts separate entries of the source, which are not always exact repeats. Identical values can stand only once.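 Briefly, cells in 96-well plates were exposed to five compound concentrations for 48 h, and endpoints were estimated by linear interpolation. GI50: concentration for 50% inhibition of growth. TGI denotes the concentration required for complete inhibition of growth.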

Assays:
Test in all cases: growth of human tumour cells (NCI), 48 h
[1] = tested on: MOLT-4 leukemia
[2] = tested on: SW-620 colon
[3] = tested on: ACHN renal
[4] = tested on: SK-OV-3 ovarian
[5] = tested on: M14 melanoma
[6] = tested on: MDA-MB-231 breast
[7] = tested on: NCI/ADR-RES ovarian
[8] = tested on: LOX IMVI melanoma
[9] = tested on: IGROV1 ovarian
[10] = tested on: RPMI-8226 leukemia
[11] = tested on: EKVX NSCLC
[12] = tested on: TK-10 renal
[13] = tested on: OVCAR-5 ovarian
[14] = tested on: HOP-92 NSCLC
[15] = tested on: CAKI-1 renal
[16] = tested on: MALME-3M melanoma
[17] = tested on: OVCAR-4 ovarian
[18] = tested on: SK-MEL-2 melanoma
[19] = tested on: SF-268 CNS
[20] = tested on: MDA-MB-435
[21] = tested on: MCF7 breast
[22] = tested on: SF-295 CNS
[23] = tested on: NCI-H23 lung
[24] = tested on: UACC-257 melanoma
[25] = tested on: HL-60(TB) leukemia
[26] = tested on: OVCAR-8 ovarian
[27] = tested on: KM12 colon
[28] = tested on: UACC-62 melanoma
[29] = tested on: OVCAR-3 ovarian
[30] = tested on: HCC-2998 colon
[31] = tested on: SK-MEL-5 melanoma
[32] = tested on: A498 renal
[33] = tested on: BT-549 breast
[34] = tested on: SN12C renal
[35] = tested on: SNB-19 CNS
[36] = tested on: HCT-116 colon
[37] = tested on: SNB-75 CNS
[38] = tested on: UO-31 renal
[39] = tested on: 786-0 renal
[40] = tested on: NCI-H522 lung
[41] = tested on: HS 578T breast
[42] = tested on: NCI-H226 lung
[43] = tested on: U251 CNS
[44] = tested on: HOP-62 NSCLC
[45] = tested on: RXF 393 renal
[46] = tested on: NCI-H460 lung
[47] = tested on: PC-3 prostate
[48] = tested on: DU-145 prostate
[49] = tested on: SF-539 CNS
[50] = tested on: A549 NSCLC
[51] = tested on: COLO 205 colon
[52] = tested on: HT29 colon
[53] = tested on: K-562 leukemia
[54] = tested on: HCT-15 colon
[55] = tested on: SR leukemia
[56] = tested on: CCRF-CEM leukemia
[57] = tested on: T-47D breast
[58] = tested on: SK-MEL-28 melanoma

CNC(=O)c1ccccc1Nc1nc(Nc2ccc3c(c2OC)CCC[C@H](N2CCN(CCO)CC2)C3)ncc1Cl
GI50 [1]: 2.45 µM and 2.82 µM | TGI [1]: 6.75 µM and > 10 µM | GI50 [2]: 0.863 µM and 0.669 µM | TGI [2]: 11.3 µM and > 10 µM | GI50 [3]: 1.16 µM and 1.43 µM | TGI [3]: 11.3 µM and > 10 µM | GI50 [4]: 2.98 µM and 2.47 µM | TGI [4]: 14.4 µM and 9.23 µM | GI50 [5]: 1.02 µM and 0.51 µM | TGI [5]: 3.44 µM and 2.78 µM | GI50 [6]: 1.34 µM and 1.62 µM | TGI [6]: 3.26 µM and 7.04 µM | GI50 [7]: 4.62 µM and 3.01 µM | TGI [7]: 17.9 µM and > 10 µM | GI50 [8]: 1.31 µM and 1.09 µM | TGI [8]: 2.77 µM and 2.48 µM | GI50 [9]: 1.02 µM and 0.801 µM | TGI [9]: 5.75 µM and 4.96 µM | GI50 [10]: 1.8 µM and 2.95 µM | TGI [10]: 7.08 µM and > 10 µM | GI50 [11]: 1.75 µM and 1.72 µM | TGI [11]: 13.7 µM and > 10 µM | GI50 [12]: 2.97 µM and 0.656 µM | TGI [12]: 18.2 µM and > 10 µM | GI50 [13]: 0.656 µM and 0.732 µM | TGI [13]: 15.5 µM and > 10 µM | GI50 [14]: 0.154 µM and 0.148 µM | TGI [14]: 1.64 µM and 0.863 µM | GI50 [15]: 0.69 µM and 1.06 µM | TGI [15]: 13.1 µM and > 10 µM | GI50 [16]: 0.875 µM and 1.63 µM | TGI [16]: 3.09 µM and > 10 µM | GI50 [17]: 1.72 µM and 3.45 µM | TGI [17]: 13.4 µM and > 10 µM | GI50 [18]: 1.56 µM and 0.613 µM | TGI [18]: 5.9 µM and 2.7 µM | GI50 [19]: 3.23 µM and 3.22 µM | TGI [19]: 16.5 µM and > 10 µM | GI50 [20]: 1.33 µM and 0.901 µM | TGI [20]: 6.92 µM and > 10 µM | GI50 [21]: 0.37 µM and 0.374 µM | TGI [21]: 11.2 µM and > 10 µM | GI50 [22]: 1.71 µM and 1.49 µM | TGI [22]: 3.79 µM and 3.42 µM | GI50 [23]: 2.5 µM and 1.21 µM | TGI [23]: 15 µM and > 10 µM | GI50 [24]: 1.52 µM and 1.29 µM | TGI [24]: 3.87 µM and 3.42 µM | GI50 [25]: 0.403 µM and 0.305 µM | TGI [25]: 2.04 µM and 2.38 µM | GI50 [26]: 4.73 µM and 3.25 µM | TGI [26]: 19.9 µM and > 10 µM | GI50 [27]: 3.04 µM and 3.23 µM | TGI [27]: 11.2 µM and > 10 µM | GI50 [28]: 1.58 µM and 1.35 µM | TGI [28]: 4.02 µM and 3.39 µM | GI50 [29]: 6.74 µM and 3.18 µM | TGI [29]: 20.3 µM and > 10 µM | GI50 [30]: 1.89 µM and 1.56 µM | TGI [30]: 11.5 µM and > 10 µM | GI50 [31]: 1.74 µM and 1.64 µM | TGI [31]: 4.87 µM and 5.19 µM | GI50 [32]: 1.38 µM and 2.22 µM | TGI [32]: 3.23 µM and 9.95 µM | GI50 [33]: 3.84 µM and 3.43 µM | TGI [33]: 16 µM and > 10 µM | GI50 [34]: 2.57 µM and 2.59 µM | TGI [34]: 13.3 µM and > 10 µM | GI50 [35]: 2.85 µM and 6.49 µM | TGI [35]: 14.6 µM and > 10 µM | GI50 [36]: 1.3 µM and 1.05 µM | TGI [36]: 4.24 µM and 3.95 µM | GI50 [37]: 1.88 µM and 2.49 µM | TGI [37]: 12.6 µM and > 10 µM | GI50 [38]: 1.38 µM and 0.714 µM | TGI [38]: 11.6 µM and 7.69 µM | GI50 [39]: 1.48 µM and 1.44 µM | TGI [39]: 4.24 µM and 5.06 µM | GI50 [40]: 1.89 µM and 1.12 µM | TGI [40]: 10.5 µM and 4.32 µM | GI50 [41]: 2.13 µM and 2.4 µM | TGI [41]: 16.2 µM and > 10 µM | GI50 [42]: 7.65 µM and 2.57 µM | TGI [42]: 20.8 µM and > 10 µM | GI50 [43]: 2.43 µM and 2.27 µM | TGI [43]: 13.3 µM and > 10 µM | GI50 [44]: 2.84 µM and 2.77 µM | TGI [44]: 16.8 µM and > 10 µM | GI50 [45]: 1.68 µM and 1.98 µM | TGI [45]: 7.3 µM and > 10 µM | GI50 [46]: 0.892 µM and 0.574 µM | TGI [46]: 13.3 µM and > 10 µM | GI50 [47]: 3.01 µM and 2.06 µM | TGI [47]: 15.5 µM and > 10 µM | GI50 [48]: 1.17 µM and 0.888 µM | TGI [48]: 14.8 µM and > 10 µM | GI50 [49]: 1.95 µM and 4.38 µM | TGI [49]: 5.31 µM and > 10 µM | GI50 [50]: 1.45 µM and 1.44 µM | TGI [50]: 10.2 µM and > 10 µM | GI50 [51]: 0.335 µM and 0.295 µM | TGI [51]: 2.2 µM and 1.6 µM | GI50 [52]: 0.329 µM and 0.256 µM | TGI [52]: 10.5 µM and 1.27 µM | GI50 [53]: 2.25 µM and 2.51 µM | TGI [53]: 5.94 µM and 8.55 µM | GI50 [54]: 0.589 µM and 0.552 µM | TGI [54]: 6.32 µM and 5.69 µM | GI50 [55]: 0.0449 µM and 0.128 µM | TGI [55]: 1.96 µM and 2.32 µM | GI50 [56]: 2.95 µM and 2.97 µM | TGI [56]: 11 µM and > 10 µM | GI50 [57]: 2.34 µM and 2.95 µM | TGI [57]: 17.8 µM and > 10 µM | GI50 [58]: 1.39 µM and 1.73 µM | TGI [58]: 3.11 µM and 4.46 µM
